Test results from ChEMBL document CHEMBL2396607 (Bioorg Med Chem Lett, 2013).

Tests used:
[1] = biological target: T1, Phosphatidylinositol 4,5-bisphosphate 3-kinase catalytic subunit alpha isoform (Homo sapiens, UniProt P42336); assay: Inhibition of N-terminal myristoylated P110alpha (unknown origin)-mediated AKT phosphorylation at Ser473 expressed in rat Rat1 cells by ELISA; assay type: cell-based
[2] = biological target: T2, Phosphatidylinositol 4,5-bisphosphate 3-kinase catalytic subunit beta isoform (Homo sapiens, UniProt P42338); assay: Inhibition of N-terminal myristoylated P110beta (unknown origin)-mediated AKT phosphorylation at Ser473 expressed in rat Rat1 cells by ELISA; assay type: cell-based
T2 sequence (P42338 whole entry, canonical isoform): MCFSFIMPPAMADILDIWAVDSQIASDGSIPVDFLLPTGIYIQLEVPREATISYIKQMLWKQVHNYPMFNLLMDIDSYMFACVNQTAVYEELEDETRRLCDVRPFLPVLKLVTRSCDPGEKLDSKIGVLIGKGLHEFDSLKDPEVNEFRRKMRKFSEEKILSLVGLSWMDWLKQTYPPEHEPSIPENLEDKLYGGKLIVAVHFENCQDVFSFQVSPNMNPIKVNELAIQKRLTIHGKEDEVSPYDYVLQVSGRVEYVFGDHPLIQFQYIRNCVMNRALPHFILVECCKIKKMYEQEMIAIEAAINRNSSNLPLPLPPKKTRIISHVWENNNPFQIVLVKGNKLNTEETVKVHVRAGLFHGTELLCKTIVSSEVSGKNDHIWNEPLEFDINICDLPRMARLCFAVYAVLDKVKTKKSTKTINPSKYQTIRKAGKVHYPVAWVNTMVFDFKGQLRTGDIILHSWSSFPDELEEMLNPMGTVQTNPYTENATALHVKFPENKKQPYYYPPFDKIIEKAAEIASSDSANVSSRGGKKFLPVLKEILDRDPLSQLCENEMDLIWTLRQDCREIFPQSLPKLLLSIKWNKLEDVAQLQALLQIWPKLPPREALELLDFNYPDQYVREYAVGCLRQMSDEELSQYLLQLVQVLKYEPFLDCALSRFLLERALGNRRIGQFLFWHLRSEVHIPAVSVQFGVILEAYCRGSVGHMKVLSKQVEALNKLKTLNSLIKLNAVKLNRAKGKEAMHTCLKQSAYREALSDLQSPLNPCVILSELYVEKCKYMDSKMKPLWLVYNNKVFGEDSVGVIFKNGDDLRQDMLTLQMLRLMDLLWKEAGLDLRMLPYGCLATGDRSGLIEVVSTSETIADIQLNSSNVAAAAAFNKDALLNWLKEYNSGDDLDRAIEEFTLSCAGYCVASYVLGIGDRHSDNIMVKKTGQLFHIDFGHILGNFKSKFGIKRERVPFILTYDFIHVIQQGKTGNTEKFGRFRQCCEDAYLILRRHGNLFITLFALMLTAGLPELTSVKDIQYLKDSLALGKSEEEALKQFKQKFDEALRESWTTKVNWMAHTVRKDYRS

[3] = biological target: T3, Phosphatidylinositol 4,5-bisphosphate 3-kinase catalytic subunit delta isoform (Homo sapiens, UniProt O00329); assay: Inhibition of N-terminal myristoylated P110delta (unknown origin)-mediated AKT phosphorylation at Ser473 expressed in rat Rat1 cells by ELISA; assay type: cell-based
T3 sequence (O00329 whole entry): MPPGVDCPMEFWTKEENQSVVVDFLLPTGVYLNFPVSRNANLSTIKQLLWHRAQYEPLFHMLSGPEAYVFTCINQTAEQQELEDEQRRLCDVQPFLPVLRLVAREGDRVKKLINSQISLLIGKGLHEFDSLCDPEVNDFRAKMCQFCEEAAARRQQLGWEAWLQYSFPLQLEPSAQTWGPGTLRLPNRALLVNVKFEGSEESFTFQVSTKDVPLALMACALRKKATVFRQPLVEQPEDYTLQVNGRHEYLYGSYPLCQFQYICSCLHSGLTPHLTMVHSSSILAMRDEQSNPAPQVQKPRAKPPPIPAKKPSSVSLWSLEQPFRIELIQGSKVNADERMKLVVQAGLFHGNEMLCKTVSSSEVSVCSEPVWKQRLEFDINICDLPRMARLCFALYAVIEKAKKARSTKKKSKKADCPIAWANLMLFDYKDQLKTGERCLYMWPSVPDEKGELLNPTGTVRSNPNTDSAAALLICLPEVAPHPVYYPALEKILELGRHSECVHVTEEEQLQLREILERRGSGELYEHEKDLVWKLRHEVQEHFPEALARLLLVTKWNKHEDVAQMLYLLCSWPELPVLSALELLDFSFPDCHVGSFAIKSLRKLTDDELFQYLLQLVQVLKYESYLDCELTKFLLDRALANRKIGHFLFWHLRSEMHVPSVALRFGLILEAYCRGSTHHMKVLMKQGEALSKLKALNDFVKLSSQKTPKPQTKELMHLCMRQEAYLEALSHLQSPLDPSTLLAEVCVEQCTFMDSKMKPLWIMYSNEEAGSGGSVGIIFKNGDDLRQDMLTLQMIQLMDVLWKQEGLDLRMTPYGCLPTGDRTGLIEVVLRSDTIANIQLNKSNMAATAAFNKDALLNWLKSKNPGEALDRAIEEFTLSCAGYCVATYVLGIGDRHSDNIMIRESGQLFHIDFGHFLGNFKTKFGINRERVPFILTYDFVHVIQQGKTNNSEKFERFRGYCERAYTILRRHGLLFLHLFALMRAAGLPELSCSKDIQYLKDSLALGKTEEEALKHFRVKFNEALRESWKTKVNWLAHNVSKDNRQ

[4] = Clearance in rat liver microsomes in presence of cofactor for glucuronyl transferases; assay type: ADME, Microsome; conditions: read-out: CLH
[5] = Half life in Sprague-Dawley rat at 1 mg/kg, iv; assay type: ADME, organism-based; set-up: dose 1 mg/kg, route intravenous; conditions: in vivo
[6] = Volume of distribution at steady state in Sprague-Dawley rat at 1 mg/kg, iv; assay type: ADME, organism-based; set-up: dose 1 mg/kg, route intravenous; conditions: in vivo, read-out: Vdss
[7] = Clearance in Sprague-Dawley rat at 1 mg/kg, iv; assay type: ADME, organism-based; set-up: dose 1 mg/kg, route intravenous; conditions: in vivo
Cytochrome P450 3A4 = Cytochrome P450 3A4 (Homo sapiens, UniProt P08684); assay: Inhibition of CYP3A4 (unknown origin); assay type: ADME
Cytochrome P450 3A4, sequence (P08684 whole entry): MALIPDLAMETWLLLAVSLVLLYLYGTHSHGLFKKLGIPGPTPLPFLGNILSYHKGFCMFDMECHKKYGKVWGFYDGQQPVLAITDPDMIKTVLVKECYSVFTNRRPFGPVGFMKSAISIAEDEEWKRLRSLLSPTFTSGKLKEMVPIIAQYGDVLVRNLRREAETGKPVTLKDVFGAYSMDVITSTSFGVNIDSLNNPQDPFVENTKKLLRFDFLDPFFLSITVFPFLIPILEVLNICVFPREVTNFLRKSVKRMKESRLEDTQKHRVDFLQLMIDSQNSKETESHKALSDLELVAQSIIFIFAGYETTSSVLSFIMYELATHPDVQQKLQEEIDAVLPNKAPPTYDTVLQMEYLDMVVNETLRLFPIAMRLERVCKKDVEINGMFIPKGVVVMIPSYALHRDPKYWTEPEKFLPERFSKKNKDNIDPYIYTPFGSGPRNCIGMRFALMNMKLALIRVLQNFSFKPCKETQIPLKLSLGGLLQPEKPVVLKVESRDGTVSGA

[8] = Plasma protein binding in Sprague-Dawley rat at 1 mg/kg, iv; assay type: ADME, organism-based; set-up: dose 1 mg/kg, route intravenous; conditions: read-out: PPB (converted)
[9] = biological target: T3, Phosphatidylinositol 4,5-bisphosphate 3-kinase catalytic subunit delta isoform; assay: Inhibition of P110delta (unknown origin) using PIP2:PS as substrate by TR-FRET assay
[10] = biological target: Phosphatidylinositol 4,5-bisphosphate 3-kinase catalytic subunit gamma isoform (Homo sapiens, UniProt P48736); assay: Inhibition of P110gamma (unknown origin) using PIP2:PS as substrate by TR-FRET assay
Phosphatidylinositol 4,5-bisphosphate 3-kinase catalytic subunit gamma isoform, sequence (P48736 whole entry, canonical isoform): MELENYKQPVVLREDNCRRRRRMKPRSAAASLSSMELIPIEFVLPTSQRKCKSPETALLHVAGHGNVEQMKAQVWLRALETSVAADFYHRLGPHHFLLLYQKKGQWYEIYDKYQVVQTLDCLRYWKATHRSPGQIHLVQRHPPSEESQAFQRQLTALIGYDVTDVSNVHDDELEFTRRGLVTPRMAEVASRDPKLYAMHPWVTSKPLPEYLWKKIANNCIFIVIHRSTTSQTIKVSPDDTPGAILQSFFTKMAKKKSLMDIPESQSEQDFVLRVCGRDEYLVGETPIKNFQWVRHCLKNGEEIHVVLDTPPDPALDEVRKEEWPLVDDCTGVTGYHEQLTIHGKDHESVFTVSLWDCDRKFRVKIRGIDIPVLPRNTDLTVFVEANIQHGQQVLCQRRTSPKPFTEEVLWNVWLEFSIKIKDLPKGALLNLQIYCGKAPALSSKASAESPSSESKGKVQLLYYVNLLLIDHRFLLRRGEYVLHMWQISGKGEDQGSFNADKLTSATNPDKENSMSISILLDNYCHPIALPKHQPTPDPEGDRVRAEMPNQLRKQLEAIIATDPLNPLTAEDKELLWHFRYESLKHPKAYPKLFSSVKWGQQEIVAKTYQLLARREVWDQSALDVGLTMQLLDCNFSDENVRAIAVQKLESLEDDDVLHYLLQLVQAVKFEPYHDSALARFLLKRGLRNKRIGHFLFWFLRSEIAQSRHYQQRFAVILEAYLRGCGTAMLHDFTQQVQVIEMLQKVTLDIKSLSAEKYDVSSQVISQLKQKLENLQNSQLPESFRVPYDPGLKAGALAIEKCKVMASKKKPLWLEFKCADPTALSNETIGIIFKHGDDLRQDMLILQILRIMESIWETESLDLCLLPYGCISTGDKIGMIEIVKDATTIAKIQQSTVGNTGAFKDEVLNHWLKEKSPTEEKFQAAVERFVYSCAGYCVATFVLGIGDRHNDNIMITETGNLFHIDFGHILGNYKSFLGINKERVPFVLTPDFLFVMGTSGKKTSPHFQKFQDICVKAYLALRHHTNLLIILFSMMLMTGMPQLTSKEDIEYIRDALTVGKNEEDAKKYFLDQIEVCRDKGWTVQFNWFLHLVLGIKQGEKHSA

[11] = biological target: T2, Phosphatidylinositol 4,5-bisphosphate 3-kinase catalytic subunit beta isoform; assay: Inhibition of P110beta (unknown origin) using L-a-phosphatidylinositol as substrate by luminescence assay
[12] = biological target: T1, Phosphatidylinositol 4,5-bisphosphate 3-kinase catalytic subunit alpha isoform; assay: Inhibition of P110alpha (unknown origin) using L-a-phosphatidylinositol as substrate by luminescence assay
[13] = Clearance in rat liver microsomes; assay type: ADME, Microsome; conditions: read-out: CLH
[14] = biological target: Serine/threonine-protein kinase mTOR (Homo sapiens, UniProt P42345); assay: Inhibition of mTOR (unknown origin)
[15] = Cmax in dog at 0.6 mg/kg, po; assay type: ADME, organism-based, Canis lupus familiaris; set-up: dose 0.6 mg/kg, route oral; conditions: in vivo
[16] = Oral bioavailability in dog at 0.6 mg/kg; assay type: ADME, organism-based, Canis lupus familiaris; conditions: in vivo
[17] = Cmax in mouse at 3 mg/kg, po; assay type: ADME, organism-based; set-up: dose 3 mg/kg, route oral; conditions: in vivo
[18] = biological target: Serine-protein kinase ATM (Homo sapiens, UniProt Q13315); assay: Inhibition of ATM (unknown origin) phosphorylation at Ser1981 by cell-based assay
[19] = Clearance in rat at 3.4 mg/kg, iv and 15 mg/kg, po; assay type: ADME, organism-based; conditions: in vivo
[20] = biological target: Serine/threonine-protein kinase ATR (Homo sapiens, UniProt Q13535); assay: Inhibition of ATR (unknown origin)
[21] = Oral bioavailability in mouse at 3 mg/kg; assay type: ADME, organism-based; conditions: in vivo
[22] = Clearance in dog at 0.1 mg/kg, iv and 0.6 mg/kg, po; assay type: ADME, organism-based, Canis lupus familiaris; conditions: in vivo
[23] = Clearance in mouse at 1 mg/kg, iv and 3 mg/kg, po; assay type: ADME, organism-based; conditions: in vivo
[24] = biological target: Phosphatidylinositol 3-kinase catalytic subunit type 3 (Homo sapiens, UniProt Q8NEB9); assay: Inhibition of VPS34 (unknown origin)
Phosphatidylinositol 3-kinase catalytic subunit type 3, sequence (Q8NEB9 whole entry): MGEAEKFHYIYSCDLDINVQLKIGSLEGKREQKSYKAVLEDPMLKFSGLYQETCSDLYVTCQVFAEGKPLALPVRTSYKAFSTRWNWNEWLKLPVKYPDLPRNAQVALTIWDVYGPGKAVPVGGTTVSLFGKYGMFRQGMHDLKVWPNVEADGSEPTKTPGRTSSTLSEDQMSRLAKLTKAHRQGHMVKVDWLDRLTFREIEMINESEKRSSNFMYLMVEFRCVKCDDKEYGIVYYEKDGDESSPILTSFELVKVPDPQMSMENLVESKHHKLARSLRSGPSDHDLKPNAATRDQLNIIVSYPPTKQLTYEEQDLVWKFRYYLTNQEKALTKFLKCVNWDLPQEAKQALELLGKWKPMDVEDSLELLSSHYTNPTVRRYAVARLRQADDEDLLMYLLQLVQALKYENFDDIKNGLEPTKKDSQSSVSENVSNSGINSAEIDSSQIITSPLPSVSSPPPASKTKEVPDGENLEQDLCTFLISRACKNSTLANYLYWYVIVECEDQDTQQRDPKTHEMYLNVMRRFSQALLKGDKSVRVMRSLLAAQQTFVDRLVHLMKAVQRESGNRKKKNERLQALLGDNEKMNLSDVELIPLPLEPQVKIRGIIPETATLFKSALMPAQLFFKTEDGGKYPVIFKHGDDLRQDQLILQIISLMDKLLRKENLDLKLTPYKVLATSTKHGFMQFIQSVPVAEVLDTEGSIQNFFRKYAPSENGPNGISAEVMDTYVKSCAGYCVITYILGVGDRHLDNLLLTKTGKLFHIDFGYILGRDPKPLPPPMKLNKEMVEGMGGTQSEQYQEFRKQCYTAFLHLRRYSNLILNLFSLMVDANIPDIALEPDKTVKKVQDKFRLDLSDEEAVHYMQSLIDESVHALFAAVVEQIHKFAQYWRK

[25] = Cmax in rat at 15 mg/kg, po; assay type: ADME, organism-based; set-up: dose 15 mg/kg, route oral; conditions: in vivo
[26] = biological target: DNA-dependent protein kinase catalytic subunit (Homo sapiens, UniProt P78527); assay: Inhibition of DNA-PK (unknown origin)

T1 sequence (P42336 whole entry, canonical isoform): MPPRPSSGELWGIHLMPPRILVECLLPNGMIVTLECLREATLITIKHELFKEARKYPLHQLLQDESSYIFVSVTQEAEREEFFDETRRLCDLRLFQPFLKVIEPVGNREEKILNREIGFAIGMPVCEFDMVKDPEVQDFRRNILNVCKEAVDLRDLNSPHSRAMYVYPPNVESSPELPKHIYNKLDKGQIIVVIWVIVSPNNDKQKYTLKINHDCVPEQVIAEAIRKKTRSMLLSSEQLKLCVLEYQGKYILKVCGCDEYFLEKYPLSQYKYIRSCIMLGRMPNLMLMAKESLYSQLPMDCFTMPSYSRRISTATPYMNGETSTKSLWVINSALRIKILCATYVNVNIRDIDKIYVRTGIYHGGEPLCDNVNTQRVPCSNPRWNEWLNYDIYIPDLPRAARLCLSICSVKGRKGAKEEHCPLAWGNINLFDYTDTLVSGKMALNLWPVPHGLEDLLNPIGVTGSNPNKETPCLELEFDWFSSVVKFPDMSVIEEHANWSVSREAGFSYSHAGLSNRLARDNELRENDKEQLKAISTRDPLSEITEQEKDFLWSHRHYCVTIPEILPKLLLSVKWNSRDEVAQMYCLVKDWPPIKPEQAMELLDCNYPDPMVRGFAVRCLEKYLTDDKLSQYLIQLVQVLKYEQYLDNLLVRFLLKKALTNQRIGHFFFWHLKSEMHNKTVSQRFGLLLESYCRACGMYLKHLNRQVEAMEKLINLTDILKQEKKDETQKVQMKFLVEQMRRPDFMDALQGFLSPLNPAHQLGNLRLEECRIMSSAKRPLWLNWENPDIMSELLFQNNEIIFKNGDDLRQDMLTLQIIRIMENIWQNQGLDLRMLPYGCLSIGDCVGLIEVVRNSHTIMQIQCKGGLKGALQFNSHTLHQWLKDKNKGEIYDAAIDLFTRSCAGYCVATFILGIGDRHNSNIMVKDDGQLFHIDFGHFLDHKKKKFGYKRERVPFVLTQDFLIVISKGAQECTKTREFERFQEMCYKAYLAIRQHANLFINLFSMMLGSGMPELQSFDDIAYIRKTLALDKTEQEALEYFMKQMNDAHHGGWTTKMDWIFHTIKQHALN

Compound	IC50 [1]	IC50 [2]	IC50 [3]	microsomal CLint [4]	IC50 (Cytochrome P450 3A4)	IC50 [9]	IC50 [10]	IC50 [11]	IC50 [12]	microsomal CLint [13]	other results
Cc1nc(NC(=O)N2CCC[C@H]2C(N)=O)sc1-c1ccnc(C(C)(C)C)c1	–	8000 nM	720 nM	77 µL/min/mg	> 10000 nM	330 nM	430 nM	–	–	–	half-life [5]: 3.4 h; Vd [6]: 1.4 L/kg; clearance [7]: 39 mL/min/kg
CNC(=O)[C@@H]1CCCN1C(=O)Nc1nc(C)c(-c2ccnc(C(C)(C)C)c2)s1	> 10000 nM	> 10000 nM	5800 nM	104 µL/min/mg	–	4200 nM	4600 nM	> 9100 nM	2700 nM	–	–
Cc1nc(NC(=O)N2CCCC2)sc1-c1ccnc(C(C)(C)C)c1	2500 nM	> 10000 nM	770 nM	186 µL/min/mg	–	590 nM	930 nM	4900 nM	620 nM	–	–
Cc1nc(NC(=O)N2CCC[C@@H]2C(N)=O)sc1-c1ccnc(C(C)(C)C)c1	–	–	–	36 µL/min/mg	–	3300 nM	> 10000 nM	8200 nM	–	–	–
CC(C)(c1cc(-c2cnc(NC(=O)N3CCC[C@H]3C(N)=O)s2)ccn1)C(F)(F)F	140 nM	2400 nM	2900 nM	–	> 10000 nM	1100 nM	830 nM	–	9.5 nM	27 µL/min/mg	–
CC(C)(c1cc(-c2sc(NC(=O)N3CCC[C@H]3C(N)=O)nc2Cl)ccn1)C(F)(F)F	340 nM	> 10000 nM	4900 nM	–	–	430 nM	1400 nM	–	–	17 µL/min/mg	–
Cc1nc(NC(=O)N2CCC[C@H]2C(N)=O)sc1-c1ccnc(C(C)(C)C(F)(F)F)c1 [ALPELISIB]	–	–	–	–	–	–	–	–	–	–	IC50 [14]: > 9100 nM; half-life [5]: 2.9 h; Cmax [15]: 1070 nM; bioavailability [16]: 140%; Vd [6]: 1.9 L/kg; clearance [7]: 10 mL/min/kg; Cmax [17]: 520 nM; IC50 [18]: > 10000 nM; clearance [19]: 10 mL/min/kg; IC50 [20]: > 9100 nM; bioavailability [21]: 106%; clearance [22]: 8 mL/min/kg; clearance [23]: 8 mL/min/kg; IC50 [24]: > 9100 nM; Cmax [25]: 190 nM; IC50 [26]: > 9100 nM; fraction unbound [8]: 0.057

Further lines, with some results ahead:

IC50 [1]	IC50 [2]	IC50 [3]	microsomal CLint [4]	IC50 (Cytochrome P450 3A4)	IC50 [9]	IC50 [10]	IC50 [11]	IC50 [12]	microsomal CLint [13]	Compound	other results
130 nM	2100 nM	620 nM	–	–	–	–	–	–	–	Cc1nc(NC(=O)N2CCC[C@H]2C(N)=O)sc1-c1ccc(-n2cccn2)cc1	–
–	–	–	62 µL/min/mg	> 10000 nM	–	–	–	–	–	Cc1nc(NC(=O)N2CCC[C@H]2C(N)=O)sc1-c1ccnc(C(C)(C)C)n1	half-life [5]: 1.2 h; Vd [6]: 1.2 L/kg; clearance [7]: 21 mL/min/kg; fraction unbound [8]: 0.06
230 nM	6400 nM	1600 nM	–	–	290 nM	320 nM	1200 nM	19 nM	44 µL/min/mg	Cc1nc(NC(=O)N2CC[C@H]2C(N)=O)sc1-c1ccnc(C(C)(C)C)n1	–
640 nM	> 10000 nM	> 10000 nM	–	> 10000 nM	2000 nM	1100 nM	–	–	41 µL/min/mg	Cc1nc(NC(=O)N2CCC[C@H]2C(N)=O)sc1-c1ccnc(C2(C#N)CC2)c1	–
100 nM	5900 nM	1300 nM	–	> 10000 nM	960 nM	1400 nM	4000 nM	16 nM	36 µL/min/mg	Cc1nc(NC(=O)N2CCC[C@H]2C(N)=O)sc1-c1ccnc(C(C)C)n1	–
440 nM	7300 nM	> 10000 nM	–	> 10000 nM	690 nM	610 nM	1800 nM	20 nM	53 µL/min/mg	Cc1nc(NC(=O)N2CCC[C@H]2C(N)=O)sc1-c1ccnc(C2CCC2)n1	–
4600 nM	> 10000 nM	> 10000 nM	–	–	–	–	> 9100 nM	320 nM	–	Cc1nc(NC(=O)N2CCC[C@H]2C(N)=O)sc1-c1cc(C(C)C)ncn1	–
170 nM	4400 nM	2500 nM	–	–	340 nM	410 nM	–	–	96 µL/min/mg	CCN(CC)c1nccc(-c2sc(NC(=O)N3CCC[C@H]3C(N)=O)nc2C)n1	–
–	9600 nM	3000 nM	–	> 10000 nM	810 nM	690 nM	3100 nM	–	47 µL/min/mg	Cc1nc(NC(=O)N2CCC[C@H]2C(N)=O)sc1-c1ccnc(C2(C)CC2)n1	half-life [5]: 1.7 h; Vd [6]: 0.9 L/kg; clearance [7]: 8 mL/min/kg; fraction unbound [8]: 0.029
